Tested on: not listed separately
Assay: Stability test in buffer solutions, by thin layer chromatography
Type: physicochemical
Settings: pH 7.4, room temperature, 2 months
Description: About 1.5 mg of test compound was dissolved in a drop of methanol and diluted in each 1.5 ml of a buffer solution *adjusted to pH 5.2, 7.2, 7.4, 9.2, respectively. Stability test was carried out at 37° C. in the case of pH 5.2, 7.2, 9.2 and at room temperature in the case of pH 7.4,.
Using a thin layer chromatography as the identification method, the test solution in each buffer solution of pH 5.2, 7.2, 7.4 was extracted with ethyl acetate and in the case of the test solution of […], it was diluted with water, acidified at pH 4 with 10% HCl and extracted with ethyl acetate.
*pH 5.2 (0.2M Pottasium hydrogen phthalate)

Question: With `O=C(O)CCCC=C1C[C@H]2C[C@@H](O)[C@H](/C=C/[C@@H](O)C3COc4ccccc4O3)[C@H]2C1` (stereo partly drawn) [Compound 5, 15α-Hydroxy-15-(benzodioxane-2-yl)-carbacyclin] as the compound, how does the “Stability (change in thin layer chromatography)” value read?
Answer: The value was “No change”.

Tested on: ethanol-induced ulcer
Assay: Anti-ulcer activities, ethanol-induced ulcer
Type: in vivo
Settings: po, 1 h; rat, perorally, dose 10 μg/kg, 30 min before ethanol
Description: 1. Anti-ulcer activities, Ethanol-induced ulcer
Inhibitory effects of ethanol-induced ulcer are determined by the method of A. Robert (Gastroenterology 77, 433-43). Rats are fasted for 24 hrs. and are given 1 ml of absolute ethanol perorally. 1 hour after administration of ethanol, the stomach of the rat is removed. The length of each ulcer occurring in the grandulor stomach is determined and each ulcer in one rat is acounted as ulcer-index. The test compounds are given perorally 30 minutes before ethanol administration.

Question: Which inhibition in vivo at 0.01 mg/kg does the source give for `O=C(O)CCCC=C1C[C@H]2C[C@@H](O)[C@H](/C=C/[C@@H](O)C3COc4ccccc4O3)[C@H]2C1` (stereo partly drawn) [Compound 5, 15α-Hydroxy-15-(benzodioxane-2-yl)-carbacyclin] here?
Answer: Its inhibition in vivo at 0.01 mg/kg is 71.9%.

Question: With `CC1([C@H](O)/C=C/[C@@H]2[C@H]3CC(CCOCC(=O)O)=C[C@H]3C[C@H]2O)Cc2ccccc2C1` [Compound 41, 15α-Hydroxy-15-(2-methylindan-2-yl)-3-oxa-isocarbacyclin] as the compound, how does the inhibition in vivo at 0.01 mg/kg read?
Answer: Its inhibition in vivo at 0.01 mg/kg is 64.2%.

Question: With `O=C(O)COCCC1=C[C@H]2C[C@@H](O)[C@H](/C=C/[C@@H](O)C3COc4ccccc4O3)[C@H]2C1` (stereo partly drawn) [Compound 45, 15α-Hydroxy-15-(1,4-benzodioxane-2-yl)-3-oxa-isocarbacyclin] as the compound, how does the inhibition in vivo at 0.01 mg/kg read?
Answer: The inhibition in vivo at 0.01 mg/kg was 58.9%.

Same assay, conditions: po, 1 h; rat, perorally, dose 30 μg/kg, 30 min before ethanol

Question: With `O=C(O)CCCC=C1C[C@H]2C[C@@H](O)[C@H](C#C[C@@H](O)C3Cc4ccccc4C3)[C@H]2C1` [Compound 3, 13,14-Dehydro-15α-hydroxy-15-(indan-2-yl)-carbacyclin] as the compound, how does the inhibition in vivo at 0.03 mg/kg read?
Answer: Its inhibition in vivo at 0.03 mg/kg is 93.4%.

Question: Which inhibition in vivo at 0.03 mg/kg does the source give for `CC1([C@H](O)/C=C/[C@@H]2[C@H]3CC(=CCOCC(=O)O)C[C@H]3C[C@H]2O)Cc2ccccc2C1` [Compound 33, 15α-Hydroxy-15-(2-methylindan-2-yl)-3-oxa-carbacyclin] here?
Answer: Its inhibition in vivo at 0.03 mg/kg is 47.6%.

Question: For `O=C(O)COCC=C1C[C@H]2C[C@@H](O)[C@H](/C=C/[C@@H](O)C3Cc4ccccc4C3)[C@H]2C1` [Compound 35, 15α-Hydroxy-15-(indan-2-yl)-3-oxa-carbacyclin], which inhibition in vivo at 0.03 mg/kg is on record?
Answer: The inhibition in vivo at 0.03 mg/kg was 44.6%.

Question: With `COc1ccc2c(c1)OCC([C@H](O)/C=C/[C@@H]1[C@H]3CC(=CCCCC(=O)O)C[C@H]3C[C@H]1O)O2` (stereo partly drawn) [Compound 11, 15α-Hydroxy-15-(6-methoxybenzodioxane-2-yl)-carbacyclin] as the compound, how does the inhibition in vivo at 0.03 mg/kg read?
Answer: Its inhibition in vivo at 0.03 mg/kg is 82.1%.

Same assay, conditions: po, 1 h; rat, perorally, dose 100 μg/kg, 30 min before ethanol

Question: For `CC1([C@H](O)/C=C/[C@@H]2[C@H]3CC(=CCCCC(=O)O)C[C@H]3C[C@H]2O)COc2ccccc2O1` (stereo partly drawn) [Compound 17, 15β-Hydroxy-15-(2-methylbenzodioxane-2-yl)-carbacyclin], which inhibition in vivo at 0.1 mg/kg is on record?
Answer: Its inhibition in vivo at 0.1 mg/kg is 72.6%.

Question: With `O=C(O)CCCC=C1C[C@H]2C[C@@H](O)[C@H](/C=C/[C@@H](O)c3ccc4c(c3)OCCO4)[C@H]2C1` [Compound 1, 15α-Hydroxy-15-(benzodioxane-6-yl)-carbacyclin] as the compound, how does the inhibition in vivo at 0.1 mg/kg read?
Answer: Its inhibition in vivo at 0.1 mg/kg is 41.6%.

Question: Which inhibition in vivo at 0.1 mg/kg does the source give for `O=C(O)COCC=C1C[C@H]2C[C@@H](O)[C@H](/C=C/[C@@H](O)C3COc4ccccc4O3)[C@H]2C1` (stereo partly drawn) [Compound 37, 15α-Hydroxy-15-(1,4-benzodioxane-2-yl)-3-oxa-carbacyclin] here?
Answer: The inhibition in vivo at 0.1 mg/kg was 51.6%.

Question: With `O=C(O)CCCC=C1C[C@H]2C[C@@H](O)[C@H](/C=C/[C@@H](O)C3Cc4ccccc4C3)[C@H]2C1` [Compound 7, 15α-Hydroxy-15-(indan-2-yl)-carbacyclin] as the compound, how does the inhibition in vivo at 0.1 mg/kg read?
Answer: Its inhibition in vivo at 0.1 mg/kg is 68.7%.

Question: With `O=C(O)COCCC1=C[C@H]2C[C@@H](O)[C@H](/C=C/[C@@H](O)C3Cc4ccccc4C3)[C@H]2C1` [Compound 43, 15α-Hydroxy-15-(indan-2-yl)-3-oxa-isocarbacyclin] as the compound, how does the inhibition in vivo at 0.1 mg/kg read?
Answer: Its inhibition in vivo at 0.1 mg/kg is 51.8%.

Same assay, conditions: po, 1 h; rat, perorally, dose 300 μg/kg, 30 min before ethanol

Question: Which inhibition in vivo at 0.3 mg/kg does the source give for `Cc1ccc2c(c1)OCC([C@H](O)/C=C/[C@@H]1[C@H]3CC(=CCCCC(=O)O)C[C@H]3C[C@H]1O)O2` (stereo partly drawn) [Compound 9, 15α-Hydroxy-15-(6-methylbenzodioxane-2-yl)-carbacyclin] here?
Answer: Its inhibition in vivo at 0.3 mg/kg is 80.6%.

Question: Which inhibition in vivo at 0.3 mg/kg does the source give for `O=C(O)CCCC=C1C[C@H]2C[C@@H](O)[C@H](/C=C/[C@@H](O)C3Cc4ccc([N+](=O)[O-])cc4C3)[C@H]2C1` (stereo partly drawn) [Compound 23, 15α-Hydroxy-15-(5-nitroindan-2-yl)-carbacyclin] here?
Answer: The inhibition in vivo at 0.3 mg/kg was 98.9%.
